Laboratory results: ChEMBL document CHEMBL1146998, “Cespitulactones A and B, new diterpenoids from Cespitularia taeniata” (Bioorg Med Chem Lett, 2006)
Converted amounts (≈) assume the structure as drawn.

Key:
Format in all cases: functional, cell-based
WiDr = assay: Cytotoxicity against human WiDr cell line by MTT assay
Daoy = assay: Cytotoxicity against human Daoy cell line by MTT assay
HeLa = assay: Cytotoxicity against human HeLa cell line by MTT assay
DLD-1 = assay: Cytotoxicity against human DLD1 cell line by MTT assay

C=C1CC[C@@H]2CC[C@H](OC(=O)C/C(C)=C/[C@@H](OC(=O)c3ccc(Cl)cc3)C1)C(=O)C2(C)C
IC50 (WiDr): > 20 µg/mL
IC50 (Daoy): > 20 µg/mL

CC(=O)O[C@@H]1/C(C(C)C)=C\C=C(/C)CC/C=C(\C)CC[C@@H]2O[C@@]2(C)[C@H]1OC(C)=O
IC50 (WiDr): 13.8 µg/mL (≈ 34.1 µM)
IC50 (Daoy): 16.9 µg/mL (≈ 41.8 µM)

C=C1CC[C@@H]2CC[C@H](OC(=O)C/C(C)=C/[C@@H](OC(C)=O)C1)C(=O)C2(C)C [CESPITULACTONE A MONOACETATE]
IC50 (WiDr): > 20 µg/mL
IC50 (Daoy): > 20 µg/mL

C=C1CC[C@@H]2CC[C@H](OC(=O)C/C(C)=C/[C@@H](OC(=O)c3ccccc3)C1)C(=O)C2(C)C
IC50 (WiDr): > 20 µg/mL
IC50 (Daoy): > 20 µg/mL

C=C1CC[C@@H]2CCC3=C(C(=O)[C@@H](/C(C)=C/C(O)C1)[C@H]3O)C2(C)C (stereo not given in full) [CESPITULARIN F]
IC50 (WiDr): > 20 µg/mL
IC50 (Daoy): > 20 µg/mL

C=C1CC[C@@H]2CCC3=C(C2(C)C)[C@@](OC)(C/C(C)=C/[C@@H](O)C1)OC3=O [CESPITULACTONE B]
IC50 (WiDr): > 20 µg/mL
IC50 (Daoy): > 20 µg/mL

C=C1CC[C@@H]2CCC3=C(C2(C)C)[C@@](O)(C/C(C)=C/[C@@H](O)C1)OC3=O [CESPITULARIN D]
IC50 (WiDr): > 20 µg/mL
IC50 (Daoy): > 20 µg/mL

C=C1CC[C@@H]2CC[C@H](OC(=O)C/C(C)=C/[C@@H](O)C1)C(=O)C2(C)C [CESPITULACTONE A]
IC50 (WiDr): > 20 µg/mL
IC50 (Daoy): > 20 µg/mL
IC50 (HeLa): 3.69 µg/mL (≈ 11.5 µM)
IC50 (DLD-1): 9.98 µg/mL (≈ 31.1 µM)

C=C1CC[C@@H]2CCC3=C(C(=O)[C@@H](/C(C)=C/[C@@H](OC(C)=O)C1)[C@H]3O)C2(C)C [CESPITULARIN J]
IC50 (WiDr): > 20 µg/mL
IC50 (Daoy): > 20 µg/mL
